EP4000400A1, “HERBICIDE COMBINATION COMPRISING GLUFOSINATE, SA[…] TRIFLUDIMOXAZIN” (BASF SE, priority 2020, dated 2022)

Columns and labels:
[1] = tested on: POAAN; test: Post-emergence weed control, field (Example 3), percent injury 17 DAT; assay type: in vivo, Poa annua
From the text: (§1) The herbicide compounds applied in the examples were used as experimental or commercially available solo or premix formulations which have been diluted with tap water to a suitable concentration. Glufosinate was used as a commercial SL formulation containing 280 g ai/I of glufosinate (Liberty 280 SL, BASF). While the PPO herbicides saflufenacil and trifludimoxazin were used as solo (saflufenacil - Sharpen/Heat herbicide 342 SC, BASF, or trifludimoxazin - Vulcarus 500 SC, BASF), or a premix of saflufenacil + trifludimoxazin as a 250 + 125 g ai/I SC formulation.
(§2) The evaluation for plant injury or damage caused by the chemical compositions was carried out using a scale from 0 - 100% when compared with the untreated control plants. Here, 0 means no damage and 100 means complete destruction of the plants.
(§3) A natural field population of common chickweed (Stellaria media; STEME), purple cudweed (Gnaphalium purpureum; GNAPU), henbit (Lamium amplexicaule; LAMAM), and annual bluegrass (Poa annua; POAAN) were treated with postemergence applications of either glufosinate at 450 or 655 g ai/ha, saflufenacil + trifludimoxazin at 1.7 + 0.8, or 4.2 + 2.1 g ai/ha, or the combination of glufosinate and saflufenacil + trifludimoxazin at 450 and 1.7 + 0.8, or 4.2 + 2.1 g ai/ha, respectively, when they were 7.6 - 15 cm in height. […]

[2] = tested on: GNAPU; test: as above; assay type: in vivo, Gnaphalium purpureum
From the text: as §1, §2, §3

[3] = tested on: LAMAM; test: as above; assay type: in vivo, Lamium amplexicaule
From the text: as §1, §2, §3

[4] = tested on: CARPA; test: Post-emergence weed control, field (Example 2), percent injury 16 DAT; assay type: in vivo, Cardamine parviflora
From the text: as §1, §2
(§4) A natural field population of small flowered bittercress (Cardamine parviflora; CARPA), cressleaf grounsel (Senecio glabellus; SENGL), cutleaf evening primrose (Oenothera laciniate; OEOLA), and annual bluegrass (Poa annua; POAAN) were treated with postemergence applications of either glufosinate at 450 or 655 g ai/ha, saflufenacil + trifludimoxazin at 1.7 + 0.8, or 4.2 + 2.1 g ai/ha, or the combination of glufosinate and saflufenacil + trifludimoxazin at 450 and 1.7 + 0.8, or 4.2 + 2.1 g ai/ha, respectively, when they were 10 - 25 cm in height. […]

[5] = tested on: LOLMU; test: Post-emergence weed control, greenhouse (Example 1), percent injury 14 DAT; assay type: in vivo; conditions: Lolium multiflorum, 336 h, Glufosinate 450 g/ha, read-out: Herbicidal action against LOLMU (% activity compared to untreated) Found
From the text: as §1, §2
22., E=X+Y-(X*Y/100), where X = effect in percent using herbicide A at an application rate of a; Y = effect in percent using herbicide B at an application rate of b; E = expected effect (in %) of A + B at application rates a + b.
The value E corresponds to the effect (plant damage or injury) which is to be expected if the activity of the individual compounds is just additive. If the observed effect is higher than the value E calculated according to Colby, a synergistic effect is present. […]

[6] = tested on: OEOLA; test: Post-emergence weed control, field (Example 2), percent injury 16 DAT; assay type: in vivo, Oenothera laciniate
From the text: as §1, §2, §4

[7] = tested on: POAAN; test: as above; assay type: in vivo, Poa annua
From the text: as §1, §2, §4

[8] = tested on: SENGL; test: as above; assay type: in vivo, Senecio glabellus
From the text: as §1, §2, §4

[9] = tested on: STEME; test: Post-emergence weed control, field (Example 3), percent injury 17 DAT; assay type: in vivo, Stellaria media
From the text: as §1, §2, §3

CP(=O)(O)CCC(N)C(=O)O (racemic) [Glufosinate, (2RS)-2-amino-4-[hydroxy(methyl)phosphinoyl]butyric acid]
Mean % Control (17 DAT) POAAN ([1]; 450 g ai/ha): 66.7% | Mean % Control (17 DAT) POAAN ([1]; 655 g ai/ha): 86.7% | Mean % Control (17 DAT) GNAPU ([2]; 450 g ai/ha): 78.3% | Mean % Control (17 DAT) GNAPU ([2]; 655 g ai/ha): 98.7% | Mean % Control (17 DAT) LAMAM ([3]; 450 g ai/ha): 50.0% | Mean % Control (17 DAT) LAMAM ([3]; 655 g ai/ha): 82.7% | Mean % Control (16 DAT) CARPA ([4]; 450 g ai/ha): 90.7% | Mean % Control (16 DAT) CARPA ([4]; 655 g ai/ha): 95.0% | activity at 450 g/ha [5]: 68.5% | Mean % Control (16 DAT) OEOLA ([6]; 450 g ai/ha): 81.7% | Mean % Control (16 DAT) OEOLA ([6]; 655 g ai/ha): 92.3% | Mean % Control (16 DAT) POAAN ([7]; 450 g ai/ha): 80.0% | Mean % Control (16 DAT) POAAN ([7]; 655 g ai/ha): 90.7% | Mean % Control (16 DAT) SENGL ([8]; 450 g ai/ha): 80.7% | Mean % Control (16 DAT) SENGL ([8]; 655 g ai/ha): 88.7% | Mean % Control (17 DAT) STEME ([9]; 450 g ai/ha): 53.3% | Mean % Control (17 DAT) STEME ([9]; 655 g ai/ha): 90.0%
